Here are results for seven compounds from US8343513B2, “Prevention of molecular weight reduction of the polymer, impurity formation and gelling in polymer compositions” (Oakwood Laboratories, LLC, priority 2003, dated 2013).

The pKa is the pH at which an ionisable group is half protonated. As a reminder, the solubility is the dissolved amount per volume that the medium holds. Low readings indicate a poorly soluble substance, high ones a readily soluble substance.

Where a SMILES comes first, the peptide text is derived from it. [ ]: non-standard residue; d: D form. The star is where a group is joined. dPhe(4-Cl) = N[C@H](Cc1ccc(Cl)cc1)C(=O)O; Nicotinoyl(6-NH2) = Nc1ccc(C(=O)*)cn1; d2Nal = N[C@H](Cc1ccc2ccccc2c1)C(=O)O; Lys(iPr) = CC(C)NCCCC[C@H](N)C(=O)O; d3Pal = N[C@H](Cc1cccnc1)C(=O)O; Picolinoyl = O=C(c1ccccn1)*; dOrn = NCCC[C@@H](N)C(=O)O

Data set [1] can be described thus: Orntide solubility and gelling in solvents and dispersed phase. The format is physicochemical.
Text: However, most of the GnRH analogs are soluble only at certain concentrations (at very low concentrations of antagonists and moderate concentrations of agonists) beyond which these analogs pose solubility and gelling problems when dissolved in these solvents.
The stability was followed for a day.
Data set [2] can be described thus: Screening of octreotide related substance formation with polymers and acid additives, 40° C. 24 and 48 hour. The format is physicochemical. The conditions noted are these: octreotide with polymer in DCM/methanol.
For data set [3] the following is noted: cited from earlier work.

The compound `CC(=O)N[C@H](Cc1ccc2ccccc2c1)C(=O)N[C@H](Cc1ccc(Cl)cc1)C(=O)N[C@H](Cc1cccnc1)C(=O)N[C@@H](CO)C(=O)N[C@@H](CCCCNC(=O)c1ccccn1)C(=O)N[C@H](CCCNC(=O)c1ccc(N)nc1)C(=O)N[C@@H](CC(C)C)C(=O)N[C@@H](CCCCNC(C)C)C(=O)N1CCC[C@H]1C(=O)N[C@H](C)C(N)=O` [PPL-ORN-9902] (Ac-[d2Nal][dPhe(4-Cl)][d3Pal]SK(Picolinoyl)[dOrn](Nicotinoyl(6-NH2))L[Lys(iPr)]P[dA]-NH2) showed a time to gel in data set [1] (84 mg orntide acetate, 100 mg glacial acetic acid, 130 mg methanol, 1.28 g methylene chloride, warmed to 40° C.) of no more than 30 min.

Take `CC(=O)O` [glacial acetic acid]: in data set [2], the “related substances formation in words” value was “less efficient than lactic and glycolic acids”.

Take `O=C(O)C(O)CO` (stereo not shown) [glyceric acid]: the pKa in data set [3] is 3.25.

Consider `O=C(O)CO` [glycolic acid], for which the “related substances formation in words” value in data set [2] was “prevented the related substances formation”.

With `CC(O)C(=O)O` (stereo not shown) [lactic acid], the “related substances formation in words” value in data set [2] is “reduced the related substances and made comparable to the control”.

Consider `CC(=O)N[C@H](Cc1ccc2ccccc2c1)C(=O)N[C@H](Cc1ccc(Cl)cc1)C(=O)N[C@H](Cc1cccnc1)C(=O)N[C@@H](CO)C(=O)N[C@@H](CCCCNC(=O)c1ccccn1)C(=O)N[C@H](CCCNC(=O)c1ccc(N)nc1)C(=O)N[C@@H](CC(C)C)C(=O)N[C@@H](CCCCNC(C)C)C(=O)N1CCC[C@H]1C(=O)N[C@H](C)C(N)=O` [orntide] (Ac-[d2Nal][dPhe(4-Cl)][d3Pal]SK(Picolinoyl)[dOrn](Nicotinoyl(6-NH2))L[Lys(iPr)]P[dA]-NH2), for which the solubility in data set [1] (aqueous media, even at a pH lower than 5) was less than 5 mg/mL.

For the compound `CCCCCCCCCCCCCCCCCC(=O)O` [stearic acid], the “related substances formation in words” value in data set [2] is “less efficient than lactic and glycolic acids”.
